# Results reported in US20090252788A1, “Balsalazide formulations and manufacture and use thereof” (Salix Pharmaceuticals, Inc., priority 2005, published 2009).
# Test: Particle size distribution and specific surface area (LS 200, Small Volume Module, Fraunhofer optical model)
# Type: physicochemical
# Conditions: for Particle size, % < 10: 10% of volume below this size; for Particle size, % < 25: 25% of volume below this size; for Particle size, % < 50: 50% of volume below this size; for Particle size, % < 75: 75% of volume below this size; for Particle size, % < 100: 100% of volume below this size; for Mean particle size (volume statistics, arithmetic) / Median particle size (volume statistics, arithmetic) / Specific Surf. Area: calculations from 0.375 μm to 2000 μm
# Source text: FIG. 2 depicts and the data below tabulate for Sample 1 the arithmetic statistics describing surface area, particle size, and cumulative volume characteristics for one lot of drug substance (feed material). The particle size distribution for this lot is depicted in FIG. 2.
# Table 11 A-D tabulates the arithmetic statistics describing surface area, particle size, and cumulative volume characteristics for three lots of drug substance (feed material). The particle size distributions for these lots are depicted in FIG. 7. […] Of these three lots of drug substance, 100% of the particles are less than 83.89 μm, 373.1 μm, and 69.61 μm, respectively.
# Table 12 tabulates the arithmetic statistics describing surface area, particle size, and cumulative volume characteristics for three lots of drug product (encapsulated granulation samples) that were manufactured with the three lots of drug substance (feed material) as depicted in FIG. 7. […] Of these three lots of drug product, 100% of the granules are less than 1660 μm, 2000 μm, and 1512 μm, respectively. The particle size distributions for these three lots are depicted in FIG. 8.
# [1] = Particle Diameter (Lower) 0.375 μm
# [2] = Particle Diameter (Lower) 0.656 μm
# [3] = Particle Diameter (Lower) 1.149 μm
# [4] = Particle Diameter (Lower) 2.011 μm
# [5] = Particle Diameter (Lower) 3.519 μm
# [6] = Particle Diameter (Lower) 6.158 μm
# [7] = Particle Diameter (Lower) 10.78 μm
# [8] = Particle Diameter (Lower) 18.86 μm
# [9] = Particle Diameter (Lower) 33.01 μm
# [10] = Particle Diameter (Lower) 57.77 μm
# [11] = Particle Diameter (Lower) 101.1 μm
# [12] = Particle Diameter (Lower) 176.9 μm
# [13] = Particle Diameter (Lower) 309.6 μm
# [14] = Particle Diameter (Lower) 541.9 μm
# [15] = Particle Diameter (Lower) 948.3 μm
# [16] = Particle Diameter (Lower) 1660 μm
Compound,Cum. < Volume % [1],Diff. Volume % [1],Cum. < Volume % [2],Diff. Volume % [2],Cum. < Volume % [3],Diff. Volume % [3],Cum. < Volume % [4],Diff. Volume % [4],Cum. < Volume % [5],Diff. Volume % [5],Cum. < Volume % [6],Diff. Volume % [6],Cum. < Volume % [7],Diff. Volume % [7],Diff. Volume % [8],Cum. < Volume % [9],Diff. Volume % [9],Cum. < Volume % [10],Diff. Volume % [10],Cum. < Volume % [11],other results
O=C([O-])CCNC(=O)c1ccc(/N=N/c2ccc(O)c(C(=O)[O-])c2)cc1.[Na+].[Na+] [Sample 1],0%,2.66%,2.66%,6.09%,8.74%,8.50%,17.2%,14.4%,31.6%,22.8%,54.5%,25.3%,79.8%,15.8%,4.34%,99.97%,0.030%,100%,0%,100%,"Particle size, % < 10: 1.266 μm; Particle size, % < 25: 2.827 μm; Particle size, % < 50: 5.584 μm; Particle size, % < 75: 9.624 μm; Particle size, % < 100: 43.67 μm; Cum. < Volume % [8]: 95.6%; Diff. Volume % [11]: 0%; Cum. < Volume % [12]: 100%; Diff. Volume % [12]: 0%; Cum. < Volume % [13]: 100%; Diff. Volume % [13]: 0%; Cum. < Volume % [14]: 100%; Diff. Volume % [14]: 0%; Cum. < Volume % [15]: 100%; Diff. Volume % [15]: 0%; Cum. < Volume % [16]: 100%; Diff. Volume % [16]: 0%; Mean particle size (volume statistics, arithmetic): 6.967 μm; Median particle size (volume statistics, arithmetic): 5.584 μm; Specific Surf. Area: 19389 cm^2/mL"
O=C([O-])CCNC(=O)c1ccc(/N=N/c2ccc(O)c(C(=O)[O-])c2)cc1.[Na+].[Na+] [Sample 4],0%,0.61%,0.61%,1.55%,2.17%,2.46%,4.62%,4.37%,8.99%,8.23%,17.2%,14.1%,31.3%,21.2%,25.5%,78.0%,17.2%,95.3%,3.43%,98.7%,"Particle size, % < 10: 3.851 μm; Particle size, % < 25: 8.660 μm; Particle size, % < 50: 17.82 μm; Particle size, % < 75: 30.86 μm; Particle size, % < 100: 309.6 μm; Cum. < Volume % [8]: 52.5%; Diff. Volume % [11]: 1.08%; Cum. < Volume % [12]: 99.8%; Diff. Volume % [12]: 0.24%; Cum. < Volume % [13]: 100%; Diff. Volume % [13]: 0%; Cum. < Volume % [14]: 100%; Diff. Volume % [14]: 0%; Cum. < Volume % [15]: 100%; Diff. Volume % [15]: 0%; Cum. < Volume % [16]: 100%; Diff. Volume % [16]: 0%; Mean particle size (volume statistics, arithmetic): 22.93 μm; Median particle size (volume statistics, arithmetic): 17.82 μm; Specific Surf. Area: 7553 cm^2/mL"
O=C([O-])CCNC(=O)c1ccc(/N=N/c2ccc(O)c(C(=O)[O-])c2)cc1.[Na+].[Na+] [Sample 2],0%,2.91%,2.91%,6.59%,9.50%,9.37%,18.9%,16.1%,35.0%,24.3%,59.3%,24.1%,83.4%,12.6%,3.78%,99.8%,0.23%,100%,0%,100%,"Particle size, % < 10: 1.192 μm; Particle size, % < 25: 2.586 μm; Particle size, % < 50: 5.044 μm; Particle size, % < 75: 8.715 μm; Particle size, % < 100: 47.94 μm; Cum. < Volume % [8]: 96.0%; Diff. Volume % [11]: 0%; Cum. < Volume % [12]: 100%; Diff. Volume % [12]: 0%; Cum. < Volume % [13]: 100%; Diff. Volume % [13]: 0%; Cum. < Volume % [14]: 100%; Diff. Volume % [14]: 0%; Cum. < Volume % [15]: 100%; Diff. Volume % [15]: 0%; Cum. < Volume % [16]: 100%; Diff. Volume % [16]: 0%; Mean particle size (volume statistics, arithmetic): 6.503 μm; Median particle size (volume statistics, arithmetic): 5.044 μm; Specific Surf. Area: 20709 cm^2/mL"
O=C([O-])CCNC(=O)c1ccc(/N=N/c2ccc(O)c(C(=O)[O-])c2)cc1.[Na+].[Na+] [Sample 3],0%,2.13%,2.13%,4.92%,7.05%,6.97%,14.0%,12.1%,26.1%,20.4%,46.4%,25.7%,72.2%,19.8%,7.20%,99.2%,0.79%,99.997%,0.0029%,100%,"Particle size, % < 10: 1.498 μm; Particle size, % < 25: 3.385 μm; Particle size, % < 50: 6.679 μm; Particle size, % < 75: 11.50 μm; Particle size, % < 100: 63.41 μm; Cum. < Volume % [8]: 92.0%; Diff. Volume % [11]: 0%; Cum. < Volume % [12]: 100%; Diff. Volume % [12]: 0%; Cum. < Volume % [13]: 100%; Diff. Volume % [13]: 0%; Cum. < Volume % [14]: 100%; Diff. Volume % [14]: 0%; Cum. < Volume % [15]: 100%; Diff. Volume % [15]: 0%; Cum. < Volume % [16]: 100%; Diff. Volume % [16]: 0%; Mean particle size (volume statistics, arithmetic): 8.399 μm; Median particle size (volume statistics, arithmetic): 6.679 μm; Specific Surf. Area: 16802 cm^2/mL"
O=C(O)CCNC(=O)c1ccc(/N=N/c2ccc(O)c(C(=O)O)c2)cc1 [Feed Powder Sample C (#53.$02)],0%,1.96%,1.96%,4.37%,6.33%,6.03%,12.4%,11.3%,23.7%,20.6%,44.2%,26.7%,70.9%,20.7%,7.30%,98.9%,1.07%,99.99%,0.013%,100%,Diff. Volume % [11]: 0%; Cum. < Volume % [12]: 100%; Diff. Volume % [12]: 0%
